{"source": "ChEMBL document CHEMBL5465560", "about": "“Selectivity Literature for EUbOPEN Chemogenomic Library” (2024)", "key": {"[1]": {"target": "T1, Aurora kinase A (Homo sapiens) (UniProt O14965)", "T1 sequence (whole entry)": "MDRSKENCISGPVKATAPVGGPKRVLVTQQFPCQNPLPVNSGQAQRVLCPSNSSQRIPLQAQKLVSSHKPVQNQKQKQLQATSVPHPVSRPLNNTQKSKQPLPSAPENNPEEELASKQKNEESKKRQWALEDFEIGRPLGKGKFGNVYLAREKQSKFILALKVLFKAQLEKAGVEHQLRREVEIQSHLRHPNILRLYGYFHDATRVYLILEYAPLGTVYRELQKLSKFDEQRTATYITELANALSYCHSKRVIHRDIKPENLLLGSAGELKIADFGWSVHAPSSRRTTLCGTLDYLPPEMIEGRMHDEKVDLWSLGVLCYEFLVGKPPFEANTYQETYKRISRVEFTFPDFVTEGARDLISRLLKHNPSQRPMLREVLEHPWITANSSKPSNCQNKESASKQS", "experiment": "Selectivity interaction (KinomeScan (DiscoverX)) EUB0000666a STK6", "conditions": "at 10 µM"}, "[2]": {"target": "T2, Ephrin type-A receptor 3 (Homo sapiens) (UniProt P29320)", "T2 sequence (whole entry)": "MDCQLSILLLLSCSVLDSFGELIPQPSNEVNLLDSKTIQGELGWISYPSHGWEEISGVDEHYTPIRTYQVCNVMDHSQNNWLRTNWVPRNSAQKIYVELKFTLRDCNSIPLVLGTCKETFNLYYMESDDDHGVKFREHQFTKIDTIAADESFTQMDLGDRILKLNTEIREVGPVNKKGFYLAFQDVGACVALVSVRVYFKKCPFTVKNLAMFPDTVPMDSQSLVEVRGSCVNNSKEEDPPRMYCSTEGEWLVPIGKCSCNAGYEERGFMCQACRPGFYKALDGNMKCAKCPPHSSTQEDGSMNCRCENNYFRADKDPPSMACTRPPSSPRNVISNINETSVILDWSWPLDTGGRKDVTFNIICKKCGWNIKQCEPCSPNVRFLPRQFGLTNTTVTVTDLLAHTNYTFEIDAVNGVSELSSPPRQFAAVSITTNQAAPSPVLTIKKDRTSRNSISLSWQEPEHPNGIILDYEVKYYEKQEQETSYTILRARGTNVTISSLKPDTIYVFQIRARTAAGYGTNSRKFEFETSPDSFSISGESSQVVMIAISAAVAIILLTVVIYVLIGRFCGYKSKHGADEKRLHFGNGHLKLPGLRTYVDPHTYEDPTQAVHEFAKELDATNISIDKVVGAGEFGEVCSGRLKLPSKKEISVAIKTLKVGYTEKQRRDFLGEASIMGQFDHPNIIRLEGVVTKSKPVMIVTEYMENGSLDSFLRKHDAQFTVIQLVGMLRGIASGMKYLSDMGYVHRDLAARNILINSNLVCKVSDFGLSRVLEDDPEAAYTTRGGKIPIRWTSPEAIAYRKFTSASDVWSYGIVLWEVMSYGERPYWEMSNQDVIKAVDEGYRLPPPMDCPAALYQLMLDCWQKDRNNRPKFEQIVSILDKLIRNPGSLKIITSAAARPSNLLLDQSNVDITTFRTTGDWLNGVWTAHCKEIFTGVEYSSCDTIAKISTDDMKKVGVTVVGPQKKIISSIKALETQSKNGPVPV", "experiment": "Selectivity interaction (KinomeScan (DiscoverX)) EUB0000666a EPHA3", "conditions": "at 10 µM"}, "[3]": {"tested_on": "Epidermal growth factor receptor (Homo sapiens), P00533 [G719S]", "sequence (P00533 whole entry G719S)": "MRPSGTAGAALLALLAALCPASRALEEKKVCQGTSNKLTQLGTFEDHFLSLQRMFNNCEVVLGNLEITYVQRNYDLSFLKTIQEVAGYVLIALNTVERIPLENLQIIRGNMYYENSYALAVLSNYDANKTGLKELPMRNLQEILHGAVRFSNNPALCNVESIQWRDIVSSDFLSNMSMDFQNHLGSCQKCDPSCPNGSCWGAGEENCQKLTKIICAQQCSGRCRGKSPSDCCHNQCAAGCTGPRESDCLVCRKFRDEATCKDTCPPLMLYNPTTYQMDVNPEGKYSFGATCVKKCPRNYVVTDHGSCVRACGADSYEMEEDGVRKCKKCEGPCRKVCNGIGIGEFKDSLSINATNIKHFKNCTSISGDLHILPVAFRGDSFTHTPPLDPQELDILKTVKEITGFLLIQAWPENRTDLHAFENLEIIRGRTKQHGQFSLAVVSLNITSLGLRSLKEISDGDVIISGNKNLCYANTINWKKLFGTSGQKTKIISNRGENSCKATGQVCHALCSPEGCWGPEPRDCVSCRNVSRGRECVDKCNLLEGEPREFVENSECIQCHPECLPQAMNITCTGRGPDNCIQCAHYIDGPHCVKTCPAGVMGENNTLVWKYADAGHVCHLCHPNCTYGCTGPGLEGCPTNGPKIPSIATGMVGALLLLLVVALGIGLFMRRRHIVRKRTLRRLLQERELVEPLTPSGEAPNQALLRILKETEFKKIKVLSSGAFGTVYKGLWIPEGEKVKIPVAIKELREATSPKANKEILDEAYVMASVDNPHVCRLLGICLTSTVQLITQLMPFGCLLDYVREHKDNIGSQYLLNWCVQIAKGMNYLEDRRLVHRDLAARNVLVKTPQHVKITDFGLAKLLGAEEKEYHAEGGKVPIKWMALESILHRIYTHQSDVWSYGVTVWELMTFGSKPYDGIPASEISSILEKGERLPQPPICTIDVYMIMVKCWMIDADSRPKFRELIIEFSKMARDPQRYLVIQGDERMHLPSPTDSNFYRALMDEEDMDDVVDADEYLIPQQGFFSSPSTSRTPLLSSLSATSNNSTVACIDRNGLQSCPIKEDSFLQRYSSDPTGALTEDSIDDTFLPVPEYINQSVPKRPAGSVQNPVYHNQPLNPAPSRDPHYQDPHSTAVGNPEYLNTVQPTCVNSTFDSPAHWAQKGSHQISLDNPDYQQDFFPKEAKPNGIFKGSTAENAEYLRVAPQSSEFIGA", "conditions": "at 10 µM"}, "[4]": {"target": "T3, Serine/threonine-protein kinase TNNI3K (Homo sapiens) (UniProt Q59H18)", "T3 sequence (whole entry)": "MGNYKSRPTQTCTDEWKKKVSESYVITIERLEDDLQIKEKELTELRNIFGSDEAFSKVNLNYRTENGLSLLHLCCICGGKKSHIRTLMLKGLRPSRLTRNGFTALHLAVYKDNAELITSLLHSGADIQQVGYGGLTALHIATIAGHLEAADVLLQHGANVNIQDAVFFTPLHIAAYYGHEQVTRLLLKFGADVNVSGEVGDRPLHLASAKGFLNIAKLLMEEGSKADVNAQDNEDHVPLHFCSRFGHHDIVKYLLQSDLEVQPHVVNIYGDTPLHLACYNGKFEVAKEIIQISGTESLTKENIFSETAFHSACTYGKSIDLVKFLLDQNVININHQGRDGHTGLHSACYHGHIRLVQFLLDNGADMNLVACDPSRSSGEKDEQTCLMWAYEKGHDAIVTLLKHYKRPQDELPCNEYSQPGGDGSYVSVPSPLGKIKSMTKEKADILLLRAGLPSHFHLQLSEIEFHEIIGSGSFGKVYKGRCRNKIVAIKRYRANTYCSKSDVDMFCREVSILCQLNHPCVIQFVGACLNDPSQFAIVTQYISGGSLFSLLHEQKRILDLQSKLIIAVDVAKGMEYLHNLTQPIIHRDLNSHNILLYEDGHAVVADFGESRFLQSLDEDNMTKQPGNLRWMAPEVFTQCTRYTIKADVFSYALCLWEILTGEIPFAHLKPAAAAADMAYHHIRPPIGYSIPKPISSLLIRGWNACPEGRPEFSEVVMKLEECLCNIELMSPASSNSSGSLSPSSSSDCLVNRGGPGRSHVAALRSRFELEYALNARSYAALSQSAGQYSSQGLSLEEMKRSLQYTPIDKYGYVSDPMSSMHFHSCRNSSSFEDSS", "experiment": "Selectivity interaction (KinomeScan (DiscoverX)) EUB0001049a TNNI3K", "conditions": "at 1 µM"}, "[5]": {"target": "T2, Ephrin type-A receptor 3 (Homo sapiens)", "experiment": "Selectivity interaction (KinomeScan (DiscoverX)) EUB0001619a EPHA3", "conditions": "at 1 µM"}, "SRSF protein kinase 1": {"target": "SRSF protein kinase 1 (Homo sapiens, UniProt Q96SB4)", "sequence (Q96SB4 whole entry)": "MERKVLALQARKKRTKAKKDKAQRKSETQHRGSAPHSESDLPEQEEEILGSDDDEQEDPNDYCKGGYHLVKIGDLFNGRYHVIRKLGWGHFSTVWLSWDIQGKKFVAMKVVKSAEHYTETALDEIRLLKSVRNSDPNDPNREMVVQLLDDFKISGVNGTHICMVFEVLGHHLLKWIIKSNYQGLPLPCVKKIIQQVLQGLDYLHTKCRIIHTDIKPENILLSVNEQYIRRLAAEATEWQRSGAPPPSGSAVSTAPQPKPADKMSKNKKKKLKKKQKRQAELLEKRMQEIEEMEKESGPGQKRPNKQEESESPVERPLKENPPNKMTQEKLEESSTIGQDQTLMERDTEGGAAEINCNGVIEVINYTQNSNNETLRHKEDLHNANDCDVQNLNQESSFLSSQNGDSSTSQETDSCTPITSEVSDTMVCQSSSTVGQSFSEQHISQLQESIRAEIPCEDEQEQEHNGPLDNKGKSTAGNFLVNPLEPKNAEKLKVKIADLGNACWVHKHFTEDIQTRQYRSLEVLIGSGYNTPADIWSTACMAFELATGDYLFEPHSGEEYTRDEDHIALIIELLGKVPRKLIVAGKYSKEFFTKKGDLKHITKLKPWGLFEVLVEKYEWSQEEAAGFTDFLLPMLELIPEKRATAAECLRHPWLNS", "experiment": "Selectivity interaction (SelectScreen profiling (Invitrogen)) EUB0000607a SRPK1", "conditions": "at 2 µM"}, "[6]": {"target": "Mitogen-activated protein kinase kinase kinase 20 (Homo sapiens) (UniProt Q9NYL2)", "sequence (Q9NYL2 2-800 limits assumed)": "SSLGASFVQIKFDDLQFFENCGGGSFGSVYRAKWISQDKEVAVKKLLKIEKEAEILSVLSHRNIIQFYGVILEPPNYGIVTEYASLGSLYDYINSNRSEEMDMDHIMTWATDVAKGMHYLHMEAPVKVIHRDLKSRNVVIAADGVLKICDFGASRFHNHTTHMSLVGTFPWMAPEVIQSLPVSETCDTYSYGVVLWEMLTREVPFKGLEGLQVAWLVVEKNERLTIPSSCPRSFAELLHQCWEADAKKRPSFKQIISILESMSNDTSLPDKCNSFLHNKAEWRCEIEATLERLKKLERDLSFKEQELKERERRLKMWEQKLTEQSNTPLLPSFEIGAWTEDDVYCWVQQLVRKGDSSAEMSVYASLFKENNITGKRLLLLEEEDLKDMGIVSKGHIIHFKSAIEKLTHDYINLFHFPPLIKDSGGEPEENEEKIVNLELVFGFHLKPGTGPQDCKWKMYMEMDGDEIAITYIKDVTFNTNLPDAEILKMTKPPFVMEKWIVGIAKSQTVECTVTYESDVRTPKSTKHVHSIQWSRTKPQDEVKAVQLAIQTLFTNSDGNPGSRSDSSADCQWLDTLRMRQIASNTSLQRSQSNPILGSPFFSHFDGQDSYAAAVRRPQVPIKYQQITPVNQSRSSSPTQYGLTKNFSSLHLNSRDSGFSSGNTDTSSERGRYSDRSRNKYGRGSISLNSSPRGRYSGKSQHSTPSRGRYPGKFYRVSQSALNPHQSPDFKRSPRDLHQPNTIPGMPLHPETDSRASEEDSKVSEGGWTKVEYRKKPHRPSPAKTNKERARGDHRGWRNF", "experiment": "Selectivity interaction (KinomeScan (DiscoverX)) EUB0000655a MAP3K20", "conditions": "at 10 µM"}, "[7]": {"target": "Serine/threonine-protein kinase PLK1 (Homo sapiens, UniProt P53350)", "sequence (P53350 whole entry)": "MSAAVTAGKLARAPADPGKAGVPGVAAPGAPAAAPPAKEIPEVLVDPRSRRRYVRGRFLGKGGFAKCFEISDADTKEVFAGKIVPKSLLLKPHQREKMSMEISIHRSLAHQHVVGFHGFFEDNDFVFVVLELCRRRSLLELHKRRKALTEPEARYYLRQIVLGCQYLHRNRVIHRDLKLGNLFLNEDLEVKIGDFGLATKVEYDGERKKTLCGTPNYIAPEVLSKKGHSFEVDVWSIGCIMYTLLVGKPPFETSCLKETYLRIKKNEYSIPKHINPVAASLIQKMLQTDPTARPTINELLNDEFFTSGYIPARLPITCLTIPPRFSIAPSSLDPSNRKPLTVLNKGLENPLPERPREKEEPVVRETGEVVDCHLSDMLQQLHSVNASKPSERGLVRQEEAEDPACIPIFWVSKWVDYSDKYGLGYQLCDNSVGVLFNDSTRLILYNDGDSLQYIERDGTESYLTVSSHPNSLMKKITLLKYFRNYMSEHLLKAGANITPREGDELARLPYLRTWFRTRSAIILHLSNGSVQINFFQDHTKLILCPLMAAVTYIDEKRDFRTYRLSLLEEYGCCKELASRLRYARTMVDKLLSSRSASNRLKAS", "experiment": "Selectivity interaction (KinomeScan (DiscoverX)) EUB0000655a PLK1", "conditions": "at 10 µM"}, "[8]": {"target": "Tyrosine-protein kinase HCK (Homo sapiens) (UniProt P08631)", "sequence (P08631 2-526 limits assumed)": "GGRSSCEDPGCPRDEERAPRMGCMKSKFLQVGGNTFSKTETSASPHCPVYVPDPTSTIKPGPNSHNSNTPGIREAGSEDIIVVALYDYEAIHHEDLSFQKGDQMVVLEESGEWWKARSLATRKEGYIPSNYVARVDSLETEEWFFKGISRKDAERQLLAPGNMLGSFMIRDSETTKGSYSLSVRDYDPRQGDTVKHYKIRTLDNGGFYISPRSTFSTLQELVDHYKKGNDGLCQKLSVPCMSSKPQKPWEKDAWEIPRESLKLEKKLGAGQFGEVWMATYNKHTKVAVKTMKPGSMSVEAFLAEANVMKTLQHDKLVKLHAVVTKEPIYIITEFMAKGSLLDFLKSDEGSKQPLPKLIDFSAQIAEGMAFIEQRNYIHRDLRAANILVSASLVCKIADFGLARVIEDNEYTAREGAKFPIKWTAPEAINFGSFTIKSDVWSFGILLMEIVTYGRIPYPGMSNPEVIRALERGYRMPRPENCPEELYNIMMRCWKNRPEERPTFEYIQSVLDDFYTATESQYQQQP", "experiment": "Selectivity interaction (KinomeScan (DiscoverX)) EUB0000092b HCK", "conditions": "at 10 µM"}}}
{"smiles": "O=C(NOC[C@H](O)CO)c1ccc(F)c(F)c1Nc1ccc(I)cc1F", "values": [{"measurement": "% of control", "setting": "[1]", "value": 100, "unit": "%"}, {"measurement": "% of control", "setting": "[2]", "value": 100, "unit": "%"}]}
{"smiles": "Cc1cc([C@@H](C)Nc2ccccc2C(=O)O)c2nc(N3CCOCC3)cc(=O)n2c1", "note": "[AZD-6482]", "values": [{"measurement": "% of control", "setting": "[3]", "value": 98, "unit": "%"}]}
{"smiles": "COc1cc(Nc2nc(C)cc(-c3cnn4nc(OC)ccc34)n2)cc(C(F)(F)F)c1", "values": [{"measurement": "% of control", "setting": "[4]", "value": 100, "unit": "%"}]}
{"smiles": "N#Cc1cccc(-c2c[nH]c3ncnc(N4CCOCC4)c23)c1", "values": [{"measurement": "% of control", "setting": "[5]", "value": 66, "unit": "%"}]}
{"smiles": "CNC(=O)Nc1ccc(-c2nc(N3CC4CCC(C3)O4)c3cnn(C4CCC5(CC4)OCCO5)c3n2)cc1", "values": [{"measurement": "% of inhibition", "setting": "SRSF protein kinase 1", "value": 2, "unit": "%"}]}
{"smiles": "CN(C)CCOc1ccc(-c2nc(-c3ccncc3)c(-c3ccc4c(c3)CC/C4=N\\O)[nH]2)cc1", "values": [{"measurement": "% of control", "setting": "[6]", "value": 84, "unit": "%"}, {"measurement": "% of control", "setting": "[7]", "value": 100, "unit": "%"}]}
{"smiles": "CCC(=O)N1CCN(c2ccc(-n3c(=O)ccc4cnc5ccc(-c6cnc7ccccc7c6)cc5c43)cc2C(F)(F)F)CC1", "values": [{"measurement": "% of control", "setting": "[8]", "value": 77, "unit": "%"}]}
